# Test results: US20230041859A1, “USE OF TERPENOIDS IN THE TREATMENT OR PREVENTION OF FIBROTIC DISEASES” (Arjil Biotech Holding Company Limited, priority 2021, published 2023)
# Where “and” joins values, the source holds several entries; their conditions need not be identical. Equal entries are not always repeated.
# Experiments:
# [1] = tested on: bleomycin-induced pulmonary fibrosis; test: Bleomycin-induced pulmonary fibrosis: hydroxyproline content in lung tissue; type: in vivo, mice; conditions: 50 mg/kg (high-dose groups); p<0.001
# Protocol: (§1) Mice were divided into fifth groups with 5 animals per group according to body weight: control group, BLM group, BLM+DEX group (7.5 mg/kg), BLM+ACH dosage group (50 mg/kg), and BLM+ACM dosage group (25 mg/kg), BLM+ACH dosage group (50 mg/kg), and BLM+ACM dosage group (25 mg/kg) BLM+AH dosage group (50 mg/kg), and BLM+AM dosage group (25 mg/kg) BLM+BH dosage group (50 mg/kg), and BLM+BM dosage group (25 mg/kg) BLM+CH dosage group (50 mg/kg), and BLM+CM dosage group (25 mg/kg) BLM+DH dosage group (50 mg/kg), and BLM+DM dosage group (25 mg/kg) BLM+EH dosage group (50 mg/kg), and BLM+EM dosage group (25 mg/kg) BLM. Pulmonary fibrosis (PF) was established in mice via a single intratracheal administration of BLM at 7.5 mg/kg mg/kg body weight. Different doses of samples were intragastrically administered daily for 21 days after BLM injury, and DEX was used as the positive control. Control and model groups received an equal volume of vehicle (0.9% NaCl) using the same schedule and route of administration.
# (§2) 1. Group I: control; 2. Group II: mice received single intraperitoneal injection of BLM (7.5 mg/kg BW) 3. Group III: single dose (ACH, 0.5 g/kg) 4. Group IV: Single dose (ACM, 1.0 g/kg) 5. […] Group VII: purified AR101-DS2 (50 mg/kg) 8. Group VIII: purified AR101-DS2 (25 mg/kg) 7. Group VII: purified AR101-DS4 (50 mg/kg) 8. Group VIII: purified AR101-DS4 (25 mg/kg) 7. […] Group VII: purified ARH013-RA1 (50 mg/kg) 8. Group VIII: purified ARH013-RA1 (25 mg/kg)
# [2] = tested on: bleomycin-induced pulmonary fibrosis; test: Bleomycin-induced pulmonary fibrosis in mice: body weight, lung weight, lung index; type: in vivo; conditions: for Pulmonary index: lung weight/body weight×100
# Protocol: Specific pathogen-free ICR mice (males) (body weights 18-22 g) were purchased from the BioLASCO Taiwan Co., Ltd. (Taipei, Taiwan). The animals were housed in Plexiglas cages at a constant temperature of 22±1° C. and a relative humidity of 55±5% on a 12 h dark-light cycle for at least 2 weeks before the experiment. Animals were provided food and water ad libitum. All experimental procedures were performed according to the guidelines of the Institutional Animal Ethics Committee, and the protocol was approved by the Committee for the Purpose of Control and Supervision of Experiments on Animals.
# as §1
# Mouse body weights were recorded daily. Mice were sacrificed on the 21th day using excess chloral hydrate hydrochloride anesthesia. Blood was obtained for ELISA analyses, and whole lungs were removed and weighed. The right lungs were fixed in 10% formalin, dehydrated, and embedded in paraffin. The left lungs were used to determine hydroxyproline. The pulmonary coefficient was calculated using the following equation: lung weight/body weight×100% […]
# At the end point of the entire experiment, the animal's body weight and lung weight were recorded.
# [3] = tested on: MPO; test: Bleomycin-induced pulmonary fibrosis: lung myeloperoxidase (MPO) assay; type: in vivo, mice; conditions: 50 mg/kg (high-dose groups); vs BLM group p<0.001
# Protocol: as §1, §2
# The lung tissues were homogenized and the MPO levels were detected with the kits according to manufacturer's instruction.
# [4] = tested on: bleomycin-induced pulmonary fibrosis; test: Bleomycin-induced pulmonary fibrosis: lung histopathology (H&E, Masson's trichrome); type: in vivo, mice; conditions: 50 mg/kg (high-dose groups)
# Protocol: as §1
# 1. Group I: control; 2. Group II: mice received single intraperitoneal injection of BLM (7.5 mg/kg BW) 3. Group III: single dose (ACH, 0.5 g/kg) 4. Group IV: Single dose (ACM, 1.0 g/kg) 5. […] Group VII: purified AR101-DS2 (50 mg/kg) 8. Group VIII: purified AR101-DS2 (25 mg/kg) 7. Group VII: purified AR101-DS4 (50 mg/kg) 8. Group VIII: purified AR101-DS4 (25 mg/kg) 7. […]
# [5] = tested on: TNF-α, IL-1β, IL-6 and TGF-β; test: Bleomycin-induced pulmonary fibrosis: pro-inflammatory cytokines (ELISA); type: in vivo, mice; conditions: 50 mg/kg (high-dose groups); serum (FIG. 35 legend: BALF); p<0.001
# Protocol: as §1
# 1. Group I: control; 2. […]
# The serum concentration of the pro-inflammatory cytokines (i.e. tumor necrosis factor-α (TNF-α), interleukin-6 (IL-6), and IL-1β) in serum were assessed with relevant enzyme-linked immunosorbent assay (ELISA) kits (Biosource International Inc., Sunnyvale, Calif., USA), based on the manufacturer's instructions. […]
# [6] = tested on: atherosclerosis and liver fibrosis in hypercholesterolemic rabbit; test: Hypercholesterolemic rabbit model (0.5% cholesterol chow), liver histology scores; type: in vivo; conditions: 10 mg/kg in 0.5% cholesterol chow; individual liver slides, 12-week study
# Protocol: 2 to 3 kg male, New Zealand White rabbits are individually caged and housed in temperature and humidity-controlled rooms. Light-dark cycles are 12 h each. After several days of acclimation, the animals are sequentially assigned to six feeding groups: standard rabbit chow, standard rabbit chow containing 0.5% cholesterol, standard rabbit chow containing both 0.5% cholesterol and 10 mg/kg Lovastatin, standard rabbit chow containing both 0.5% cholesterol and 1% ARH003, standard rabbit chow containing both 0.5% cholesterol and 1% ARH004, standard rabbit chow containing both 0.5% cholesterol and 10 mg/kg AR101-DS2. Except standard rabbit chow, others groups are given standard rabbit chow containing 0.5% cholesterol for 4 weeks (see FIGS. 14-15). The daily feeding amount for each rabbit is 50 g/kg body weight per day. Diets are administered for 8 weeks, after the animals had adjusted to their new environment. At the beginning and end of the 12 weeks study, the rabbits are anesthetized by an intramuscular injection of Zoletil 50 (1 mL/kg) (Virbac Ltd., France), and blood samples are harvested. Finally, the aortas (from aortic arch to the bifurcation of the iliac arteries) and whole livers are collected from the rabbits after they are sacrificed for further histopathological analyses.
# (ND) standard rabbit chow, n=5; (HF) standard rabbit chow containing 0.5% cholesterol, n=6; (L) standard rabbit chow containing both 0.5% cholesterol and 10 mg/kg Lovastatin, n=4; (AR003) standard rabbit chow containing both 0.5% cholesterol and 1% ARH003, n=5; (AR004) standard rabbit chow containing both 0.5% cholesterol and 1% ARH004, n=5; (AR101-DS2) standard rabbit chow containing both 0.5% cholesterol and 10 mg/kg AR101-DS2, n=5; The daily feeding amount for each rabbit is 50 g/kg body weight per day.
# The rabbit liver tissues (shown in FIG. 29) are perfused with normal saline and fixed in 10% (v/v) formalin-neutralized solution (J.T. Baker, Inc., USA) for 24 hr. […] Briefly, the slices are washed with pure water for 1 min to remove the OCT compound, washed with 50% (v/v) ethanol for 30 sec, and then stained with 2% (w/v) Sudan IV for 1 hr. After further washing with 50% (v/v) ethanol and pure water for 2 min, the slices are counterstained with hematoxylin. Photographs shown in FIG. 30 are acquired using a microscope equipped with a 10-fold magnification objective and quantified on an Alpha Imager 2200 documentation system (Alpha Innotech, USA). […]
# [7] = 25 mg/kg intragastric daily for 21 days after BLM
# [8] = 50 mg/kg intragastric daily for 21 days after BLM
# [9] = DEX 7.5 mg/kg daily for 21 days after BLM
Compound,hydroxyproline (HP) content in lung tissue [1],lung MPO activities [3],necrosis and inflammatory infiltrating cells in the lung tissue [4],"TNF-α, IL-1β, IL-6 and TGF-β production after BLM challenge [5]",Score of Inflammation [6],Score of Steatosis Grade [6],also measured
"C=C(CC[C@@H](C)[C@H]1CC[C@H]2C3=C(C(=O)C[C@]12C)[C@@]1(C)CC[C@@H](O)[C@](C)(O)[C@@H]1C[C@@H]3O)[C@@H](C)C(=O)O (racemic) [AR101-DS1, RS-Antcin K]",reduced,evidently suppressed,,,,,"Final body mass [2, 7]: 36.45 ± 0.28 g; Pulmonary mass [2, 7]: 0.52 ± 0.01 g; Final body mass [2, 8]: 39.02 ± 0.37 g; Pulmonary mass [2, 8]: 0.46 ± 0.01 g"
"C=C1C(=O)O[C@@H]2/C=C(\C)C[C@H]3C=C(CC/C=C(\C)CC[C@@H]12)C(=O)O3 [AR100-DS1, Ovatodiolide]",reduced,evidently suppressed,significantly improved,improved,,,
"C[C@@H]1C[C@H]2[C@@H]3CCC4=CC(=O)C=C[C@]4(C)[C@@]3(F)[C@@H](O)C[C@]2(C)[C@@]1(O)C(=O)CO [DEX, Dexamethasone, reference compound]",,,,,,,"Final body mass [2, 9]: 38.50 ± 0.22 g; Pulmonary mass [2, 9]: 0.42 ± 0.01 g; Pulmonary index [2, 9]: 1.09 ± 0.02"
"CC[C@H](C)C(=O)O[C@H]1C[C@@H](C)C=C2C=C[C@H](C)[C@H](CC[C@@H]3C[C@@H](O)CC(=O)O3)[C@H]21 [L, Lovastatin, reference compound]",,,,,"1 (1′: mild, 2 foci per 200 field) and 2 (2′: moderate, 2-4 foci per 200 field)",2 (2′: 33-66%) (2×) and 0 (0′: low- to medium-power evaluation of parenchymal involvement <5%),
Dehydrosulphurenic acid/Sulphurenic acid [AR101-DS2],reduced,evidently suppressed,significantly improved,improved,"1 (1′: mild, 2 foci per 200 field) (2×) and 2 (2′: moderate, 2-4 foci per 200 field)",3 (3′: >66%) (2×) and 1 (1′: 5-33 %),"Pulmonary index ([2]; 50 mg/kg intragastric daily for 21 days after BLM, listed as BH): significant decrease"
